Measurements taken from ChEMBL document CHEMBL1124494, “Synthesis and biological evaluation of S-adenosyl-1,12-diamino-3-thio-9-azadodecane, a multisubstrate adduct inhibitor of spermine synthase” (J Med Chem, 1989).

Target: T1, Spermidine synthase (Rattus norvegicus, UniProt Q99MI5)
T1 sequence (Q99MI5 whole entry): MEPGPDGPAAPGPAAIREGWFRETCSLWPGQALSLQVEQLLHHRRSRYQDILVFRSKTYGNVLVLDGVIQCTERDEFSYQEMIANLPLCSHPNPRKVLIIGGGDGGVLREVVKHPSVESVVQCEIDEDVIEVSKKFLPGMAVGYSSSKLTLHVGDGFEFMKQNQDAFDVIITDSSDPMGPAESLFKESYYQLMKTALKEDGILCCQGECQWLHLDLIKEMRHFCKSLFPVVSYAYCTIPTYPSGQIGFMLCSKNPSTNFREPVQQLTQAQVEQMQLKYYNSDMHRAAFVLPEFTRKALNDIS
Experiment: Inhibition of spermidine synthase activity was evaluated
Details: read-out: I50

**Q.** CCCCCC(CC)SC[C@H]1OC(n2cnc3c(N)ncnc32)[C@H](O)[C@@H]1O (stereo partly drawn) was tested. Which IC50 did it give?
**A.** > 500 µM

**Q.** For CCCNCCCCCC(CC)SC[C@H]1OC(n2cnc3c(N)ncnc32)[C@H](O)[C@@H]1O (stereo partly drawn), which IC50 is on record?
**A.** > 500 µM

**Q.** With NCCCNCCCCCC(CCN)SC[C@H]1OC(n2cnc3c(N)ncnc32)[C@H](O)[C@@H]1O (stereo partly drawn) as the molecule, how does the IC50 read?
**A.** > 13 µM
